Assay results published in patent publication US20240294537A1, “SOLID STATE FORMS OF 4-[[4-(4-CHLOROANILINO)FURO[2,3-d]PYRIDAZIN-7-yl]OXYMETHYL]-N-METHYLPYRIDINE-2-CARBOXAMIDE AND SALT THEREOF” (TEVA PHARMACEUTICALS INTERNATIONAL GMBH, priority 2021, published 2024).

Assay: Stability of the solid state form upon exposure to humidity
Type: physicochemical
Description: Telatinib mono mesylate Form TM2 is stable upon exposure to high humidity. Telatinib mono mesylate is stable when exposed to 20-100% RH at 25° C. for 7 days.

In the case of `CNC(=O)c1cc(COc2nnc(Nc3ccc(Cl)cc3)c3ccoc23)ccn1.CS(=O)(=O)O` [Telatinib mono mesylate Form TM2], the “stability upon exposure to high humidity” value is reported as “stable”.
